In ChEMBL document CHEMBL1201862, “PubChem BioAssay data set” (2004):
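The compound was tested at five concentrations on cells cultured in 96-well plates, with a 48-hour exposure period. Abbreviation: GI50, concentration required for 50% inhibition of growth.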 Activity calls are given as the source filed them. Cut-off read from the data, not from the text of the source: active = GI50 up to about 1.1 µM and inactive = higher.

What was measured:
Assay in all cases: growth of human tumour cells (NCI), 48 h
ACHN = test system: ACHN
COLO 205 = test system: COLO 205
M14 = test system: M14
M19-MEL = test system: M19-MEL
Malme-3M = test system: Malme-3M
NCI-H23 = test system: NCI-H23
NCI-H460 = test system: NCI-H460
OVCAR-3 = test system: OVCAR-3
OVCAR-8 = test system: OVCAR-8
SN12C = test system: SN12C
TK-10 = test system: TK-10
UACC-257 = test system: UACC-257
UACC-62 = test system: UACC-62

SMILES | GI50 (ACHN) | GI50 (COLO 205) | GI50 (M14) | GI50 (M19-MEL) | GI50 (Malme-3M) | GI50 (NCI-H23) | GI50 (NCI-H460) | GI50 (OVCAR-3) | GI50 (OVCAR-8) | GI50 (SN12C) | GI50 (TK-10) | GI50 (UACC-257) | GI50 (UACC-62)
N=C(CC(=O)Nc1ccc(Cl)cc1)Nc1ccccc1 | > 100 µM (inactive) | > 100 µM (inactive) | > 100 µM (inactive) | > 100 µM (inactive) | > 100 µM (inactive) | > 100 µM (inactive) | > 100 µM (inactive) | > 100 µM (inactive) | > 100 µM (inactive) | > 100 µM (inactive) | > 100 µM (inactive) | > 100 µM (inactive) | > 100 µM (inactive)
CSC(C1c2ccccc2N(C)C2=NC(=O)N(C)C(=O)C21Cl)S(=O)(=O)c1ccc(C)cc1 (configuration not stated) | 50.6 µM (inactive) | 40.2 µM (inactive) |  | 33.4 µM (inactive) | 40.3 µM (inactive) | 27 µM (inactive) | > 100 µM (inactive) | 18.9 µM (inactive) | 21 µM (inactive) | 50.4 µM (inactive) | > 100 µM (inactive) | 79.1 µM (inactive) | 91.8 µM (inactive)
O=c1c2cc(Br)cc(Br)c2nc(CCCl)n1-c1ccc(O)c([N+](=O)[O-])c1 | 19.7 µM (inactive) | 21 µM (inactive) | 17.2 µM (inactive) | 15.9 µM (inactive) | 19.1 µM (inactive) | 21.7 µM (inactive) | 21 µM (inactive) | 19.1 µM (inactive) | 22.9 µM (inactive) | 17.6 µM (inactive) | 18.5 µM (inactive) | 15.1 µM (inactive) | 22.5 µM (inactive)
Cc1cc(C)c(C(=O)c2no[n+]([O-])c2C(=O)c2c(C)cc(C)c(Br)c2C)c(C)c1Br | 12.6 µM (inactive) | 16.8 µM (inactive) | 11.8 µM (inactive) | 12.6 µM (inactive) | 14 µM (inactive) | 11.5 µM (inactive) | 14.2 µM (inactive) | 13.6 µM (inactive) | 10.9 µM (inactive) | 14.2 µM (inactive) | 9.31 µM (inactive) | > 10 µM (inactive) | 10.7 µM (inactive)
C/C(CC(=O)CCCC(=O)Nc1ccc(Cl)cc1Cl)=N/NC(=O)CC#N | > 100 µM (inactive) | > 100 µM (inactive) | > 100 µM (inactive) | > 100 µM (inactive) | > 100 µM (inactive) | > 100 µM (inactive) | > 100 µM (inactive) | > 100 µM (inactive) | > 100 µM (inactive) | > 100 µM (inactive) | > 100 µM (inactive) | > 100 µM (inactive) | > 100 µM (inactive)
O=C(O)c1ccc2c(c1)C(=O)N(c1ccc(S(=O)(=O)c3ccc(N4C(=O)c5ccc(C(=O)O)cc5C4=O)cc3)cc1)C2=O | > 100 µM (inactive) | > 100 µM (inactive) | > 100 µM (inactive) | > 100 µM (inactive) | > 100 µM (inactive) | > 100 µM (inactive) | > 100 µM (inactive) | > 100 µM (inactive) | > 100 µM (inactive) | > 100 µM (inactive) | > 100 µM (inactive) | > 100 µM (inactive) | > 100 µM (inactive)
CCOc1ccccc1NC(=O)CSc1nnc(Cc2ccccc2)o1 | 22.5 µM (inactive) | 20.6 µM (inactive) | 21.9 µM (inactive) | 34.5 µM (inactive) | 15.6 µM (inactive) | 17.2 µM (inactive) | 20.2 µM (inactive) | 17.1 µM (inactive) | 27 µM (inactive) | 26 µM (inactive) | 71.1 µM (inactive) | 29.7 µM (inactive) | 25.8 µM (inactive)
CCCCCCCCCCCc1nnc(N)o1 | > 100 µM (inactive) | > 100 µM (inactive) | > 100 µM (inactive) | > 100 µM (inactive) | > 100 µM (inactive) | > 100 µM (inactive) | > 100 µM (inactive) | > 100 µM (inactive) | > 100 µM (inactive) | > 100 µM (inactive) | > 100 µM (inactive) | > 100 µM (inactive) | > 100 µM (inactive)
COc1cc(C(=O)C/C(CCC(=O)Nc2ccccc2[N+](=O)[O-])=N\NC(=O)C(N)=O)ccc1O | > 100 µM (inactive) | > 100 µM (inactive) | > 100 µM (inactive) | > 100 µM (inactive) |  | > 100 µM (inactive) | > 100 µM (inactive) | > 100 µM (inactive) | > 100 µM (inactive) |  | > 100 µM (inactive) | > 100 µM (inactive) | > 100 µM (inactive)
CC1CC#CCOC(=O)CCCC1=O (configuration not stated) |  | > 100 µM (inactive) | > 100 µM (inactive) | > 100 µM (inactive) |  | > 100 µM (inactive) | > 100 µM (inactive) | > 100 µM (inactive) | > 100 µM (inactive) | > 100 µM (inactive) | > 100 µM (inactive) |  | > 100 µM (inactive)
C[N+](C)=c1[nH]c2ccccc2[nH]1 | > 100 µM (inactive) | > 100 µM (inactive) | > 100 µM (inactive) | > 100 µM (inactive) | > 100 µM (inactive) | > 100 µM (inactive) | > 100 µM (inactive) | > 100 µM (inactive) | > 100 µM (inactive) | > 100 µM (inactive) | > 100 µM (inactive) | > 100 µM (inactive) | > 100 µM (inactive)
COP12(OC)NC(=O)OC1(C(F)(F)F)c1ccccc1O2 (configuration not stated) | > 100 µM (inactive) |  | > 100 µM (inactive) | > 100 µM (inactive) | > 100 µM (inactive) | > 100 µM (inactive) | > 100 µM (inactive) | > 100 µM (inactive) | > 100 µM (inactive) | > 100 µM (inactive) | > 100 µM (inactive) | > 100 µM (inactive) | > 100 µM (inactive)
CC(=O)OCC1OC(n2cccnc2=O)C(OC(C)=O)C1OC(C)=O (configuration not stated) | > 100 µM (inactive) | > 100 µM (inactive) | > 100 µM (inactive) | > 100 µM (inactive) | > 100 µM (inactive) |  | > 100 µM (inactive) | > 100 µM (inactive) | > 100 µM (inactive) | > 100 µM (inactive) | > 100 µM (inactive) | > 100 µM (inactive) | > 100 µM (inactive)
Cc1cccc(O)c(=O)c1 | 31.7 µM (inactive) | 6.24 µM (inactive) | 31.8 µM (inactive) | 43.5 µM (inactive) | 31 µM (inactive) |  | 31.7 µM (inactive) | 11.6 µM (inactive) | 19.1 µM (inactive) | 37.8 µM (inactive) | 29.2 µM (inactive) | 28.3 µM (inactive) | 11.4 µM (inactive)
C(=C1\CCC/C(=C/c2ccccc2)C1=NNc1ccccc1)/c1ccccc1 | > 100 µM (inactive) | > 100 µM (inactive) | > 100 µM (inactive) | > 100 µM (inactive) | > 100 µM (inactive) | > 100 µM (inactive) | > 100 µM (inactive) | > 100 µM (inactive) | > 100 µM (inactive) | > 100 µM (inactive) | > 100 µM (inactive) | > 100 µM (inactive) | > 100 µM (inactive)
COc1cccc(C(=O)C2C(=O)N(C)CCc3ccccc32)c1OC (configuration not stated) | > 100 µM (inactive) | > 100 µM (inactive) | > 100 µM (inactive) | > 100 µM (inactive) | > 100 µM (inactive) | > 100 µM (inactive) | > 100 µM (inactive) | > 100 µM (inactive) | > 100 µM (inactive) | > 100 µM (inactive) | > 100 µM (inactive) | > 100 µM (inactive) | > 100 µM (inactive)
CS(=O)(=O)NNS(=O)(=O)c1ccc(Br)cc1 | > 100 µM (inactive) | > 100 µM (inactive) | > 100 µM (inactive) | > 100 µM (inactive) | > 100 µM (inactive) | > 100 µM (inactive) | > 100 µM (inactive) |  | > 100 µM (inactive) |  | > 100 µM (inactive) | > 100 µM (inactive) | > 100 µM (inactive)
Cc1ccc2nc3c(Cl)cc(=O)cc-3sc2c1 | 23.3 µM (inactive) | 18.7 µM (inactive) | 22.1 µM (inactive) | 19.7 µM (inactive) | 30 µM (inactive) | > 10 µM (inactive) | 29.4 µM (inactive) | 3 µM (inactive) | 21.2 µM (inactive) | > 10 µM (inactive) | 28.1 µM (inactive) | 20.2 µM (inactive) | 15.9 µM (inactive)
COc1cc(C2c3cc4c(cc3[C@@H](Nc3ccc(N(C)C)cc3)[C@H]3COC(=O)C23)OCO4)cc(OC)c1O (some centres not stated) | 0.049 µM (active) | 1.85 µM (inactive) | 0.327 µM (active) | 0.839 µM (active) | 1.41 µM (inactive) | 0.189 µM (active) | 0.0214 µM (active) | 8.04 µM (inactive) | 0.587 µM (active) | 0.34 µM (active) | 2.64 µM (inactive) | 2.23 µM (inactive) | 0.232 µM (active)
CC1(C)CCCC2(C)[C@@H]1CC[C@@]13CC(=O)[C@@](C)(CC[C@@H]21)C3 (some centres not stated) | 87.3 µM (inactive) | > 100 µM (inactive) | 94.6 µM (inactive) | 31.5 µM (inactive) | > 100 µM (inactive) | 59.7 µM (inactive) | 42.1 µM (inactive) | > 100 µM (inactive) | 85.7 µM (inactive) | 93.5 µM (inactive) | > 100 µM (inactive) | 32.7 µM (inactive) | > 100 µM (inactive)
COc1ccc(-c2csc(=[N+]3CCCCC3)s2)cc1 | 9.44 µM (inactive) | 1.49 µM (inactive) | 10.9 µM (inactive) | 2.61 µM (inactive) | 2.76 µM (inactive) | 1.63 µM (inactive) | 3.71 µM (inactive) | 3.92 µM (inactive) | 3.05 µM (inactive) | 3.61 µM (inactive) | 29.3 µM (inactive) | 3.34 µM (inactive) | 7.78 µM (inactive)
